Laboratory results reported in patent publication US20170296550A1, “ARYL SULTAM DERIVATIVES AS RORc MODULATORS” (Genentech, Inc., priority 2013, published 2017).

Each molecule was assayed against T1, RORc (Homo sapiens, UniProt P51449) (assay: In Vitro RORc Ligand Binding Assay (25-[3H]hydroxycholesterol radioligand, filter plate)). Conditions: RORc ligand binding domain 0.6 ug/mL; 6 nM 25-[3H]hydroxycholesterol; 3 h at 25° C.
T1 construct: host or cells: E. coli
T1 sequence (P51449 269-508 limits assumed): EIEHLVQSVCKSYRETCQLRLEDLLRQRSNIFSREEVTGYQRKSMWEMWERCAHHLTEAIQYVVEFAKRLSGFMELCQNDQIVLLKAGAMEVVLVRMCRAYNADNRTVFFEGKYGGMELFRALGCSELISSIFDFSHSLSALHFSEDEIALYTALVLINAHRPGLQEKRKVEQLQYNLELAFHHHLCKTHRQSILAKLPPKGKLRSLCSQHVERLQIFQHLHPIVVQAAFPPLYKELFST
Description: Example 68 In Vitro RORc Ligand Binding Assay
This assay was used to determine a compound's potency in inhibiting activity of RORc by determining, Kiapp, IC50, or percent inhibition values.
On day of the assay, 100 uL of 0.05% CHAPS (in deionized H2O) was added to all wells of the GFB Unifilter plate and allowed soak for 1 h. A wash buffer of 50 mM HEPES (pH 7.4), 150 mM NaCl, and 5 mM MgCl2 was prepared to wash the filter plate. To prepare an assay buffer, BSA was added to the wash buffer to reach 0.01% and DTT was added to reach 1 mM.
For IC50 mode, 10 mM compound stocks were serially diluted in DMSO with DMSO to give 20× required final concentration in DMSO (15 uL compound+30 uL DMSO). The 20× compound stocks were diluted in DMSO with Assay Buffer 4-fold to reach 5× the final test concentration in 25% DMSO (10 uL compound+30 uL Assay Buffer). Solutions were mixed by aspiration several times with a pipette set on 50 uL volume. For the assay, 10 uL of 5× compound stock solutions in 25% DMSO were added to the assay plate in duplicate.
For two point screening, 10 mM stock compound solutions were diluted in DMSO to obtain 200 uM (20× the high test concentration) and then diluted 10-fold further to reach 20 uM (20× the low test concentration). The 20× stocks were diluted 4-fold with Assay Buffer (10 uL compound+30 uL Assay Buffer) to reach 5× the test concentrations (50 uM and 5 uM) and 10 uL were added to two assay plates for the duplicate wells. With each concentration tested on 2 plates, each set of 80 compounds used 4 assay plates (1 uM and 10 uM, with n=2).
25-hydroxycholesterol (1 uM) was used to determine the level of NSB signal is prepared in DMSO as for compounds above, then diluted in Assay Buffer to give a final concentration of 5 uM. For 25-hydroxycholesterol in 25% DMSO/75% Assay Buffer; 10 uL per well was used for NSB samples. Wells for Total Binding and No Receptor sample determination contained 10 uL of 25% DMSO/75% Assay Buffer per well.
Radioligand (25-[^3H]hydroxycholesterol) Preparation
25-[^3H]hydroxycholesterol was dilute in Assay Buffer to obtain 15 nM and vortex to mix. Add 20 uL to all wells to reach 6 nM final in the assay.
Stock receptor solution was diluted in assay buffer to obtain 1.5 ug/mL in Assay Buffer. 20 uL was added to all wells. For No R samples, 20 uL Assay Buffer was substituted for receptor solution.
Assay plates were 96-well polypropylene V-bottom plates. 10 uL of 5× compound in 25% DMSO/75% Assay Buffer was added to Test wells. 10 uL of 25% DMSO/75% Assay Buffer was added to Total Binding or No Receptor wells. 10 uL of 5 uM 25-hydroxycholesterol in 25% DMSO/75% Assay Buffer was added to NSB wells. 20 uL of 15 nM 25-[^3H]hydroxycholesterol prepared in Assay Buffer was added to all wells. 20 uL of 1.5 ug/mL RORc receptor was added to wells (or […] Assay Buffer to No R wells). Following addition to the wells, the plates were incubated 3 h at 25° C.
Using a Packard Filtermate Harvester, the filter plate were washed 4 times following transfer of the incubated samples. Plates were dry-filtered completely (2 h at 50° C. or overnight at room temperature). 50 uL Microscint 0 was added to all wells and read on Topcount protocol Inverted.
Final concentrations were as follows: 50 mM HEPES buffer (pH 7.4); 150 mM NaCl; 1 mM DTT; 5 mM MgCl2; 0.01% BSA; 5% DMSO; 0.6 ug/mL RORc receptor; 6 nM 25-[^3H]hydroxycholesterol. For NSB wells, 1 uM 25-hydroxycholesterol was also present.

Row | SMILES | IC50 [nM]
1 | Cc1n[nH]c(C)c1-c1ccc(CN2[C@@H](C)CCC(c3ccccc3)S2(=O)=O)c(F)c1 (single isomer, unassigned) [Example 1] | 527
2 | Cc1noc(C)c1C(=O)Nc1ccc(CN2[C@@H](C)CCC(c3ccccc3)S2(=O)=O)c(F)c1 (single isomer, unassigned) [Example 4] | 27
3 | C[C@H]1CCC(c2ccccc2)S(=O)(=O)N1Cc1ccc(C(=O)NCc2cn[nH]c2)cc1 (single isomer, unassigned) [Example 7] | 502
4 | Cc1cc(NC(=O)c2ccc(CN3[C@@H](C)CCC(c4ccccc4)S3(=O)=O)cc2)n(C)n1 (single isomer, unassigned) [Example 9] | 969
5 | C[C@H]1CCC(c2ccccc2)S(=O)(=O)N1Cc1ccc(C(=O)Nc2nc[nH]c2C#N)cc1 (single isomer, unassigned) [Example 10] | 2900
6 | C[C@H]1CCC(c2ccccc2)S(=O)(=O)N1Cc1ccc(C(=O)Nc2ncnn2C)cc1 (single isomer, unassigned) [Example 21] | 3280
7 | C[C@H]1CCC(c2ccccc2)S(=O)(=O)N1Cc1ccc(-c2ccc(S(N)(=O)=O)cc2)cc1F (single isomer, unassigned) [Example 22] | 87
8 | C[C@H]1CCC(c2ccccc2)S(=O)(=O)N1Cc1ccc(-c2cccc(CC(N)=O)c2)cc1F (single isomer, unassigned) [Example 25] | 208
9 | C[C@H]1CCC(c2ccccc2)S(=O)(=O)N1Cc1ccc(-c2ccc(C(=O)N(C)C)cc2)cc1F (single isomer, unassigned) [Example 30] | 160
10 | C[C@H]1CCC(c2ccccc2)S(=O)(=O)N1Cc1ccc(-c2csc(S(C)(=O)=O)n2)cc1F (single isomer, unassigned) [Example 37] | 273
11 | C[C@H]1CCC(c2ccccc2)S(=O)(=O)N1Cc1ccc(-c2ccc(S(C)(=O)=O)nn2)cc1F (single isomer, unassigned) [Example 41] | 289
12 | C[C@H]1CCC(c2ccccc2)S(=O)(=O)N1Cc1ccc(-c2n[nH]c(S(C)(=O)=O)n2)cc1F (single isomer, unassigned) [Example 42] | 2170
13 | C[C@H]1CCC(c2ccccc2)S(=O)(=O)N1Cc1ccc(-c2cnc(NS(C)(=O)=O)nc2)cc1F (single isomer, unassigned) [Example 43] | 275
14 | Cc1ccnc(COc2ccc(CN3[C@@H](C)CCC(c4ccccc4)S3(=O)=O)cc2)n1 (single isomer, unassigned) [Example 44] | 963
15 | CC(Oc1ccc(CN2[C@@H](C)CCC(c3ccccc3)S2(=O)=O)cc1)c1cnn(C)c1 (single isomer, unassigned) [Example 45] | 693
16 | CC(Oc1ccc(CN2[C@@H](C)CCC(c3ccccc3)S2(=O)=O)cc1)c1ncccn1 (single isomer, unassigned) [Example 50] | 1350

Row | SMILES | IC50 [nM]
17 | C[C@H]1CCC(c2ccccc2)S(=O)(=O)N1Cc1ccc(OCc2ccncc2)cc1 (single isomer, unassigned) [Example 57] | 114
18 | C[C@H]1CCC(c2ccccc2)S(=O)(=O)N1Cc1ccc(OCc2cccnc2)cc1 (single isomer, unassigned) [Example 58] | 106
19 | Cc1ncsc1CCOc1ccc(CN2[C@@H](C)CCC(c3ccccc3)S2(=O)=O)cc1 (single isomer, unassigned) [Example 61] | 151
20 | C[C@H]1CCC(c2ccccc2)S(=O)(=O)N1Cc1ccc(-c2ccc3nncn3c2)cc1F (stereo partly drawn) [Example 5, 6-[3-Fluoro-4-((3S)-3-methyl-1,1-dioxo-6-phenyl-[1,2]thiazinan-2-ylmethyl)-phenyl]-[1,2,4]triazolo[4,3-a]pyridine] | 454
21 | C[C@H]1CCC(c2ccccc2)S(=O)(=O)N1Cc1ccc(C(=O)NCCn2ccnc2)cc1 (stereo partly drawn) [Example 6, N-(2-Imidazol-1-yl-ethyl)-4-((3S)-3-methyl-1,1-dioxo-6-phenyl-[1,2]thiazinan-2-ylmethyl)-benzamide] | 3920
22 | C[C@H]1CC[C@H](c2ccccc2)S(=O)(=O)N1Cc1ccc(C(=O)NCCCn2ccnc2)cc1 [Example 8, N-(3-Imidazol-1-yl-propyl)-4-((3S)-3-methyl-1,1-dioxo-6-phenyl-[1,2]thiazinan-2-ylmethyl)-benzamide] | 4980
23 | Cc1cc(NC(=O)c2ccc(CN3[C@@H](C)CCC(c4ccccc4)S3(=O)=O)cc2)n[nH]1 (stereo partly drawn) [Example 11, 4-((3S)-3-Methyl-1,1-dioxo-6-phenyl-[1,2]thiazinan-2-ylmethyl)-N-(5-methyl-1H-pyrazol-3-yl)-benzamidc] | 1220
24 | Cc1cc(NC(=O)c2ccc(CN3[C@@H](C)CCC(c4ccccc4)S3(=O)=O)cc2)no1 (stereo partly drawn) [Example 12, 4-((3S)-3-Methyl-1,1-dioxo-6-phenyl-[1,2]thiazinan-2-ylmethyl)-N-(5-methyl-isoxazol-3-yl)-benzamide] | 404
25 | C[C@H]1CCC(c2ccccc2)S(=O)(=O)N1Cc1ccc(C(=O)Nc2ccon2)cc1 (stereo partly drawn) [Example 13, N-Isoxazol-3-yl-4-((3S)-3-methyl-1,1-dioxo-6-phenyl-[1,2]thiazinan-2-ylmethyl)-benzamide] | 166
26 | C[C@H]1CCC(c2ccccc2)S(=O)(=O)N1Cc1ccc(C(=O)NCc2noc(C(N)=O)n2)cc1 (stereo partly drawn) [Example 14, 3-{[4-((3S)-3-Methyl-1,1-dioxo-6-phenyl-[1,2]thiazinan-2-ylmethyl)-benzoylamino]-methyl}-[1,2,4]oxadiazole-5-carboxylic acid amide] | 1390
27 | C[C@H]1CCC(c2ccccc2)S(=O)(=O)N1Cc1ccc(C(=O)NCc2noc(C(=O)N(C)C)n2)cc1 (stereo partly drawn) [Example 15, 3-{[4-((3S)-3-Methyl-1,1-dioxo-6-phenyl-[1,2]thiazinan-2-ylmethyl)-benzoylamino]-methyl}-[1,2,4]oxadiazole-5-carboxylic acid dimethylamide] | 5190
28 | C[C@H]1CCC(c2ccccc2)S(=O)(=O)N1Cc1ccc(C(=O)N(C)c2ncco2)cc1 (stereo partly drawn) [Example 16, N-Methyl-4-((3S)-3-methyl-1,1-dioxo-6-phenyl-[1,2]thiazinan-2-ylmethyl)-N-oxazol-2-yl-benzamide] | 4840
29 | C[C@H]1CCC(c2ccccc2)S(=O)(=O)N1Cc1ccc(C(=O)NCc2ccnn2C)cc1 (stereo partly drawn) [Example 17, 4-((3S)-3-Methyl-1,1-dioxo-6-phenyl-[1,2]thiazinan-2-ylmethyl)-N-(2-methyl-2H-pyrazol-3-ylmethyl)-benzamide] | 1980
30 | CC(NC(=O)c1ccc(CN2[C@@H](C)CCC(c3ccccc3)S2(=O)=O)cc1)c1ncc[nH]1 (stereo partly drawn) [Example 18, N-[1-(1H-Imidazol-2-yl)-ethyl]-4-((3S)-3-methyl-1,1-dioxo-6-phenyl-[1,2]thiazinan-2-ylmethyl)-benzamide] | 1920
31 | C[C@H]1CCC(c2ccccc2)S(=O)(=O)N1Cc1ccc(C(=O)NCc2ccno2)cc1 (stereo partly drawn) [Example 19, N-Isoxazol-5-ylmethyl-4-((3S)-3-methyl-1,1-dioxo-6-phenyl-[1,2]thiazinan-2-ylmethyl)-benzamide] | 985
32 | Cc1nn(C)cc1NC(=O)c1ccc(CN2[C@@H](C)CCC(c3ccccc3)S2(=O)=O)cc1 (stereo partly drawn) [Example 20, N-(1,3-Dimethyl-1H-pyrazol-4-yl)-4-((3S)-3-methyl-1,1-dioxo-6-phenyl-[1,2]thiazinan-2-ylmethyl)-benzamide] | 2110
